Data published in US20090088482A1, “Compositions and Methods For Treating Heart Failure” (The Trustees Of Columbia University In The City New York, priority 2003, published 2009).

How the values were obtained:
Format in all cases: in vivo, Sprague-Dawley rats
[1] = system: rats with HF induced by LAD ligation; assay: Body weight and heart weight in LAD ligation ischemic HF rats (Example 5); conditions: mean ± SD, 9 weeks oral therapy; for Heart Wt: HF 2.16 ± 0.33, Sham 1.72 ± 0.09; for % Δ Weight (percentage change in pre-treatment to post-treatment weights): clenbuterol 1 mg/kg/day, metoprolol 200 mg/kg/day, HF 33.8 ± 4.79, Sham 76.1 ± 19.3
Protocol: All studies were performed in compliance with the Guide for the Care and Use of Laboratory Animals (NRC 1996) and were approved by the Institutional Animal Care and Use Committee of Columbia University. Sprague-Dawley rats (Charles River Laboratories, Wilmington, Mass.) weighing 250 to 300 g were used for all experiments. Food and water were provided ad libitum, with rats housed in a light- and temperature-controlled room over the 12-week study period.
(§1) After the induction of general anesthesia with the use of intraperitoneal ketamine (75 mg/kg; Fort Dodge Animal Health, Fort Dodge, Iowa) and xylazine (5 mg/kg; Lloyd Laboratories, Shenandoah, Iowa), endotracheal intubation with a 16-guage angiocathether was performed. Rats were supported by a small animal ventilator (Harvard Apparatus, Holliston, Mass.). After performing a left thoracotomy, a sham operation (pericardiectomy only) or left anterior descending artery (LAD) ligation with a 7-0 polypropylene suture was performed. Subsequently, a chest tube (16-guage angiocathether) was placed in the left pleural space prior to closing the incision in three layers. Finally, the chest tube was used to aspirate the pleural cavity and removed after extubation.
(§2) A total of 69 rats were used in this study. LAD ligation surgery was performed in 60 rats, of which 37 (62%) survived three weeks post-surgery. Another 9 rats underwent a sham operation (group Sham), with 7 (78%) survivors. Three weeks post-operatively, echocardiography was performed to establish the baseline level of HF (as measured by fractional shortening). The LAD ligation rats were divided into 4 treatment groups matched for the degree of HF and were randomly assigned to one of the following therapies for 9 additional weeks: (1) rats receiving no therapy (group HF, n=9); (2) rats receiving high-dose clenbuterol at 1 mg/kg/day (group Clen, n=9); (3) rats receiving high-dose metoprolol at 200 mg/kg/day (group Meto, n=9); or (4) rats receiving concurrent high-dose clenbuterol at 1 mg/kg/day and high-dose metoprolol therapy at 200 mg/kg/day (group Clen+Meto, n=10).
Clenbuterol (ICN Biomedicals, Aurora, Ohio) was sonicated and subsequently dissolved in the drinking water. Metoprolol (Sigma-Aldrich, St. Louis, Mo.) was dissolved in the drinking water either alone or in combination with clenbuterol for the Clen+Meto group. The concentrations of clenbuterol and metoprolol were varied to keep the study drug dose delivered within a narrow therapeutic window based on daily water consumption. […]
Body weight was measured pre-surgery and 3 and 12 weeks post-surgery. Heart weight was measured immediately after the heart was excised. The ratio of body weight to heart weight was subsequently calculated.

[2] = system: myocytes (TUNEL, 8-oxoG, MYH, OGG1 staining); assay: Quantitative immunohistochemistry staining of apoptosis, DNA damage and DNA repair markers (Example 5); conditions: mean ± SD; for 8-oxoG: DNA damage product, HF 18 ± 4, Sham 0.5 ± 0.1; for OGG1: DNA repair marker, HF 0.5 ± 0.1, Sham 0.2 ± 0.1; for TUNEL: percentage of myocytes with nuclear staining, HF 21 ± 4, Sham 0.5 ± 0.1; for MYH (score): score 0 = 0%, 1 = 0-15%, 2 = 15-30%, 3 = 30-50%, 4 = >50% positive, HF 1.4 ± 0.5, Sham 0.6 ± 0.2
Protocol: as §2
A short-axis section of the heart at the point of maximal infarction was fixed in 4% paraformaldehyde solution for 12 hours. Sections were then embedded in paraffin and 5 μm slices used for trichrome staining. The infarct size was determined as a percentage of the LV circumference under light microscopy by a single individual (S.X.) blinded to group assignment. The remaining heart tissue was flash-frozen in liquid nitrogen and stored at −80° C. for Western blot analysis.
Histological sections (5 μm thick) were used to perform immunohistochemistry for: terminal deoxynucleotidyltransferase end labeling (TUNEL; apoptosis marker), 8-oxoG (DNA damage product), MYH (DNA mismatch repair enzyme), and OGG1 (DNA base excision repair enzyme). The percentage of myocytes with nuclear staining was quantified in a blinded manner. Because OGG1 is found both in the nucleus and cytoplasm, a scoring system was utilized to semi-quantitatively describe the staining observed: 0=no staining; 1=0 to 15% staining; 2=15 to 30% staining; 3=30 to 50% staining; and 4=>50% staining of the nucleus and cytoplasm.

[3] = system: rats with HF induced by LAD ligation; assay: Hemodynamic measurements (Millar catheter) in LAD ligation ischemic HF rats (Example 5); conditions: mean ± SD, after 9 weeks oral therapy; for MAP: HF 47.2 ± 8.85, Sham 39.8 ± 5.56; for LVSP: HF 113 ± 10.3, Sham 116 ± 17.3; for HR: HF 302 ± 19.1, Sham 291 ± 52.2; for Maximum dP/dt: HF 4609 ± 583, Sham 6700 ± 1706; for Minimum dP/dt: HF −3854 ± 563, Sham −6458 ± 1799
Protocol: as §1
as §2, with “LAD ligation surgery was performed in 60 rats, of which 37 (62%) survived three weeks post-surgery. Another 9 rats underwent a sham operation (group Sham), with 7 (78%) survivors.” left out
Clenbuterol (ICN Biomedicals, Aurora, Ohio) was sonicated and subsequently dissolved in the drinking water. Metoprolol (Sigma-Aldrich, St. Louis, Mo.) was dissolved in the drinking water either alone or in combination with clenbuterol for the Clen+Meto group. The concentrations of clenbuterol and metoprolol were varied to keep the study drug dose delivered within a narrow therapeutic window based on daily water consumption. […] The treated drinking water was made fresh every 48-72 hours. Oral pharmacotherapy was continued for a total of 9 weeks.
In the terminal experiments 12 weeks post-surgery, the rats were anesthetized with inhaled isoflurane mixed with oxygen. A 2-French Millar catheter (Millar Instruments, Houston, Tex.) was inserted into the right carotid artery and pressure measurements collected and saved as the catheter was advanced into the left ventricle. The heart was quickly arrested in diastole and excised. Hearts were subsequently weighed and used for the ex vivo determination of LV end-diastolic pressure-volume relationships (EDPVR). Using Chart 4 (version 4.2.4, ADInstruments, Colorado Springs, Colo.), left ventricular end-diastolic pressure (LVEDP), left ventricular systolic pressure (LVSP), mean aortic pressure (MAoP), heart rate, and maximum and minimum LV dP/dt (dP/dtmax and dP/dtmin) were later obtained from stored hemodynamic recordings by a single individual (S.X.), who was blinded to animals' group assignments.

Row | SMILES | Heart Wt [1] | % Δ Weight (percentage change in pre-treatment to post-treatment weights) [1] | 8-oxoG [2] | OGG1 [2] | TUNEL [2] | MYH (score) [2] | MAP [3] [mmHg] | LVSP [3] [mmHg] | HR [3] [bpm] | Maximum dP/dt [3] [mmHg/s] | Minimum dP/dt [3] [mmHg/s]
1 | CC(C)(C)NCC(O)c1cc(Cl)c(N)c(Cl)c1 (stereo not shown) [Clen, clenbuterol] | 2.64 ± 0.41 § † gm | 49.9 ± 7.18 † % | 10 ± 2 † % | 8.2 ± 2.2 † % | 11 ± 3 † % | 2.8 ± 0.5 † score | 44.2 ± 6.06 | 109 ± 10.7 | 281 ± 11.2 | 4933 ± 596 | 3901 ± 694
2 | COCCc1ccc(OCC(O)CNC(C)C)cc1 (stereo not shown) [Meto, metoprolol] | 2.17 ± 0.34 gm | 32.3 ± 7.16 % | 12 ± 3 † % | 6.4 ± 1.5 † % | 12 ± 4 † % | 2.6 ± 0.4 † score | 42.7 ± 5.38 | 107 ± 9.27 | 243 ± 19.4 | 5462 ± 541 | −4032 ± 830
